Results: paper PMC12037037 (Proceedings of the National Academy of Sciences of the …, 2025)
pKi: −log10 of the molar value.

Experiments:
[1] = biological target: 5-HT2 receptors (5-HT2A, 5-HT2B, 5-HT2C); assay: Competitive radioligand binding assays at 5-HT2 receptors; conditions: read-out: Ki range, entire family of 5-HT2 receptors; free base
Text: Radioligand binding (RLB) (top) and IP1 functional assays
(bottom) for 5-HT2A (A), 5-HT2B (B), and 5-HT2C (C) receptors. (D) The PathHunter® β-arrestin assay was used to
HT2A receptors. Data represent the mean ± SEM of 2–6 biological replicates (performed in duplicate), with the sole
exception that the β-arrestin data for (–)-JRT represents a single biological replicate averaged from 2 technical replicates.
Drugs. Many of the drugs used in these studies were purchased from commercial sources including (+)-amphetamine sulfate (Sigma Aldrich, 1180004), ketamine hydrochloride (Spectrum, K1068), and ketanserin (APExBIO, B2248).
JRT were synthesized in-house and judged to be analytically pure based on NMR and LC-MS data. For cell culture experiments, VEH = 0.1% (agonist studies) or 0.2% (antagonist studies) molecular biology grade dimethyl sulfoxide (Sigma-Aldrich).
Fumarate salts of (+)-JRT and (–)-JRT were used for all biological studies unless noted otherwise.

[2] = test system: male C57BL/6J mice; assay: PCP-induced locomotion (Psychogenics); format: in vivo
Method: IP) can block AMPH-induced hyperlocomotion in female, but not male, mice. (B) Pretreatment with (+)-JRT (1 mg/kg, IP) […]
AMPH = (+)-amphetamine; PCP = phencyclidine; VEH = vehicle; ns = not significant. *p < 0.05, **p < 0.01, ***p < 0.001, ****p < 0.0001, as compared to the comparator(s) indicated by a horizontal bar. See Methods and SI Appendix, Table S1 for full details on statistics.
(1 picture or pasted object on this page, not shown here) […]
PCP-Induced Locomotion. The PCP-induced hyperlocomotion assay was performed by Psychogenics using male C57BL/6J mice that were approximately 8 weeks old at the time of the experiments. The experiment was performed during the animal’s light cycle phase. On the day of testing, animals were acclimated to the experimental room for at least 1 h prior to treatment. Animals were then administered with VEH or JRT (IP, 10 mL/kg) and placed in holding cages for 30 min, after which mice were placed in the open field chambers (27.3 x 27.3 x 30.3; Med Associates Inc., St Albans, VT). Baseline activity was recorded for 30 min. Next, mice received either PCP (5 mg/kg, IP, 10 ml/kg) or VEH and were returned to the open field chambers for a 60 min test session. Locomotion was assessed using consecutive infrared beam breaks. At the end of each session, the chambers were thoroughly cleaned. […]
(§1) Reads were aligned to the GRCm39 genome assembly using STAR, processed with Picard, and counted with the Subread software. Transcript inclusion criteria consisted of a minimum raw expression level of 25 transcripts in a minimum of 4 samples. Surrogate variable analysis was conducted with the sva package 2023 release v3.5.0 in R and normalization and differential expression analysis was performed with DESeq2 v4.3 with a baseMean threshold of 10. Heatmaps were created with the pheatmap v1.0.12 with sample-wise z-scores plotted and both row and column grouping allowed using pearson's distances and ward.D for clustering. Gene-wise selection criteria for heatmaps were a baseMean expression threshold of 50 to focus on robustly expressed genes, p value < 0.05, and presence in the top 250 genes sorted by absolute value of log2FC. Additionally, z score was capped at 2 for visualization purposes. Schizophrenia gene sets were extracted from a recent TWAS study (30).
(§2) For Figure S8G, the TWAS set was filtered for FDR < 0.01. Permutation testing was conducted to quantify the overlap of top genes from schizophrenia TWAS with the perm_test function from the bulkWarehouse package 2023 release v1.2.7.
Briefly, the intersection of top differentially expressed genes and top TWAS genes is compared to an empirical distribution created by calculating the intersection with our top DEGs when randomly sampling candidate genes from our dataset equal to the size of the TWAS sample. […]

[3] = test system: male Sprague Dawley rats; assay: Rat forced swim test (FST); format: in vivo; conditions: for Swimming (Figure 6B) / Immobility (Figure 6B): 24 h after administration; for Swimming (Figure 6B): VEH 22.10 ± 1.929; for Immobility (Figure 6B): VEH 37.20 ± 1.867
Method: as §1, §2
Briefly, the intersection of top differentially expressed genes and top TWAS genes is compared to an empirical distribution created by calculating the intersection with our top DEGs when randomly sampling candidate genes from our dataset equal to the size of the TWAS sample. Selection criteria from the TWAS include an expression level of 25 transcripts in a minimum of 4 samples in our dataset, FDR < 0.01 from the TWAS and top 250 sorted by absolute value of log2FC. Selection criteria from our gene set were an expression level of 25 transcripts in a minimum of 4 samples, p value < 0.1 and top 250 sorted by absolute value of log2FC.
Rat Forced Swim Test (FST). This study was performed by Psychogenics (Paramus, NJ). Male Sprague Dawley rats were purchased from Envigo (Indianapolis, IN), and were 8 weeks old at the time of the experiments. Upon receipt, they were assigned unique identification numbers (tail marked) and group housed in ventilated cages with 3 rats per cage. All animals […]
remained housed in groups of three for the remainder of the study. All rats were acclimated to the colony room for up to one week prior to dosing. During the period of acclimation, rats were examined and handled daily, and weighed to assure adequate health and suitability. The room temperature was maintained between 20 °C and 23 °C with a relative humidity of 30%–70%. Lab Rodent Diet 5001 (W.F. Fisher, Cat # 11015) and water were provided ad libitum. Animals were randomly assigned across treatment groups. All testing was performed during the light phase of the light/dark cycle. Behavioral testing was conducted according to established protocols approved by the IACUC committee and PGI Standard Operation Procedures (SOP). Each forced swim chamber was constructed of clear acrylic (height = 40 cm; diameter = 20.3 cm). Only one rat was placed in the swim chamber at a time for each swim test. The water was changed and the chamber cleaned between each animal. The water depth was 16 cm in the first swim session (pre-test) and 30 cm in the second swim session (test). The water was maintained at 23 °C ± 1 °C for all swim sessions. At the end of each swim test rats were dried with paper towels and returned to the home cage. All animals were carefully monitored to ensure their safety in the swim test and any animal unable to maintain a posture with its nose above water was immediately removed from the water and not used further in the study. Animals were first subjected to a pre-test for 15 min. Immediately after the pre-test, they were administered compounds or VEH via i.p. injection (1 ml/kg). Racemic ketamine hydrochloride (10 mg/kg) was used as a positive control. A salt correction factor of 1.36 was used when preparing formulations of (+)-JRT to ensure that the dose corresponded to that of the free base. […]

CCN(CC)C(=O)[C@@H]1C=C2c3cccc4ccn(c34)C[C@H]2N(C)C1 [(+)-JRT]
pKi [1]: 6.74 to 8.70
Locomotion, infrared beam breaks (Figure 11B) ([2]; (+)-JRT (0.1) + PCP 5 mg/kg IP): 30482 ± 2310
Locomotion, infrared beam breaks (Figure 11B) ([2]; (+)-JRT (0.3) + PCP 5 mg/kg IP): 26618 ± 2425
Locomotion, infrared beam breaks (Figure 11B) ([2]; (+)-JRT (1) + PCP 5 mg/kg IP): 27253 ± 2401
Swimming (Figure 6B) ([3]; 0.3mg/kg IP): 31.70 ± 2.534
Immobility (Figure 6B) ([3]; 0.3mg/kg IP): 27.20 ± 2.546
Swimming (Figure 6B) ([3]; 1.0mg/kg IP): 31.50 ± 1.778
Immobility (Figure 6B) ([3]; 1.0mg/kg IP): 27.70 ± 1.850
Potency relative to ketamine in the forced swim test ([3]; lowest effective dose not determined): at least 100 fold
